Tests used:
[1] = target: T1, human Smo (amino acids 181-787) (Homo sapiens, UniProt Q99835); assay: Smo radioligand competition binding assay (displacement of 3H-PF-03451358 from HEK293 membranes); details: for inhibition at 0.05 µM: read-out: SMO % inh. @ 0.05 μM; for IC50: radioligand competition binding
T1 construct: expressed in transfected cells; membrane preparation
In short: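 Displacement of 3 nM tritiated PF-03451358 measured by filtration and scintillation counting after 2 h at room temperature, using 40 μg/well HEK293 membranes bearing cell-surface Smo 181-787, pH 7.5 buffer. Specific binding defined against 30 μM unlabelled ligand; IC50 via variable-slope sigmoidal fit.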

Gli-Luc/MEF cells (Smo) = assay: Gli-Luc/MEF assay (Shh-stimulated luciferase reporter under the Gli response element); assay type: cell-based, mouse
In short: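 IC50 derived from luminescence (Bright-Glo) after 48 h at 37° C, 5% CO2, with compound at […] (3-fold dilutions) added together with mouse Shh at 2 μg/mL final. Cells: MEFs from Gli-Luc transgenic mice.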

[2] = 0.05 μM test compound, displacement of 3H-PF-03451358

T1 sequence (Q99835 181-787): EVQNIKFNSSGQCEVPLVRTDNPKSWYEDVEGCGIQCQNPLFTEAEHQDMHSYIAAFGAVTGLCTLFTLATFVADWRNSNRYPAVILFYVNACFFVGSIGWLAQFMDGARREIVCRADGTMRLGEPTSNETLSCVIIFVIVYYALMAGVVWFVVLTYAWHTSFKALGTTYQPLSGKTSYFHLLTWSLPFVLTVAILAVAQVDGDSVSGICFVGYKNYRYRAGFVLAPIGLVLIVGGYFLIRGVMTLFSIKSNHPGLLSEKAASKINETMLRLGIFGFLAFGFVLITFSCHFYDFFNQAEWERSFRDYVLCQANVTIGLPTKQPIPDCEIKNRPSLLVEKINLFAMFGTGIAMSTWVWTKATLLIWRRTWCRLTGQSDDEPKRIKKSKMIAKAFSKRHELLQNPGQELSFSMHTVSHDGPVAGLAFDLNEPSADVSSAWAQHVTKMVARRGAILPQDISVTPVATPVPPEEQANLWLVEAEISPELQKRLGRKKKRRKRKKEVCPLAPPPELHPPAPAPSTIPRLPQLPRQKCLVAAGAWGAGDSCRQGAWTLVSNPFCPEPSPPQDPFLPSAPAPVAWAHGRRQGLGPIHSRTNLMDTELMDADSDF

SMILES	inhibition at 0.05 µM [1, 2] [%]	IC50 [1] [µM]	IC50 (Gli-Luc/MEF cells (Smo); Mus musculus, MEF, 48 h) [µM]	SMO % inh. @ 0.05 μM ([1]; 0.05 μM test compound, displacement of 3H-PF-03451358, 0.05 µM) [%]	IC50 (Gli-Luc/MEF cells (Smo); 48 hours) [µM]
Cc1noc(CC2CN(c3cc(-c4nc5ccccc5n4C)c(Cl)cn3)CCO2)n1 (stereo not drawn) [Example A-45, 2-(5-chloro-2-{2-[(3-methyl-1,2,4-oxadiazol-5-yl)methyl]morpholin-4-yl}pyridin-4-yl)-1-methyl-1H-benzimidazole]	102	0.013	0.009		
Cn1c(-c2cc(N3CCOCC(Cc4cncnc4)C3)ncc2Cl)nc2ccccc21 (stereo not drawn) [Example A-46, 2-{5-chloro-2-[6-(pyrimidin-5-ylmethyl)-1,4-oxazepan-4-yl]pyridin-4-yl}-1-methyl-1H-benzimidazole]	101	0.014	0.009		
Cn1c(-c2cc(N3CCOCC(CO)C3)ncc2Cl)nc2ccccc21 (stereo not drawn) [Example A-47, {4-[5-chloro-4-(1-methyl-1H-benzimidazol-2-yl)pyridin-2-yl]-1,4-oxazepan-6-yl}methanol]	101	0.009	0.007		
COCc1nc(C2CCN(c3cc(-c4nc5ccccc5n4C)c(Cl)cn3)CC2)no1 [Example A-49, 2-(5-chloro-2-{4-[5-(methoxymethyl)-1,2,4-oxadiazol-3-yl]piperidin-1-yl}pyridin-4-yl)-1-methyl-1H-benzimidazole]	100	0.011	0.007		
CC(=O)N1CCCN(c2cc(-c3nc4ccccc4n3C)c(Cl)cn2)CC1 [Example A-50, 2-[2-(4-acetyl-1,4-diazepan-1-yl)-5-chloropyridin-4-yl]-1-methyl-1H-benzimidazole]	100	0.007	0.004		
Cn1c(-c2cc(N3CCC(CS(C)(=O)=O)CC3)ncc2Cl)nc2ccccc21 [Example A-51, 2-(5-chloro-2-{4-[(methylsulfonyl)methyl]piperidin-1-yl}pyridin-4-yl)-1-methyl-1H-benzimidazole]	99	0.006	0.007		
Cc1nc(CC2CN(c3cc(-c4nc5ccccc5n4C)c(Cl)cn3)CCO2)no1 (stereo not drawn) [Example A-52, 2-(5-chloro-2-{2-[(5-methyl-1,2,4-oxadiazol-3-yl)methyl]morpholin-4-yl}pyridin-4-yl)-1-methyl-1H-benzimidazole]	99	0.013	0.013		
Cn1c(-c2cc(N3CCOCC(O)C3)ncc2Cl)nc2ccccc21 (stereo not drawn) [Example A-53, 4-[5-chloro-4-(1-methyl-1H-benzimidazol-2-yl)pyridin-2-yl]-1,4-oxazepan-6-yl]	98	0.012	0.009		
Cn1c(-c2cc(N3CCN(C(=O)c4ncn[nH]4)CC3)ncc2Cl)nc2ccccc21 [Example A-56, 2-{5-chloro-2-[4-(1H-1,2,4-triazol-3-ylcarbonyl)piperazin-1-yl]pyridin-4-yl}-1-methyl-1H-benzimidazole]	98	0.021	0.009		
Cn1c(-c2cc(N3CCC4(CCCC(=O)N4)CC3)ncc2Cl)nc2ccccc21 [Example A-57, 9-[5-chloro-4-(1-methyl-1H-benzimidazol-2-yl)pyridin-2-yl]-1,9-diazaspiro[5.5]undecan-2-one]	97	0.02	0.007		
CC(=O)N1CCC(N(C)c2cc(-c3nc4ccccc4n3C)c(Cl)cn2)CC1 [Example A-58, N-(1-acetylpiperidin-4-yl)-5-chloro-N-methyl-4-(1-methyl-1H-benzimidazol-2-yl)pyridin-2-amine]	97	0.015	0.031		
Cn1c(-c2cc(N3CCC(OCC(=O)NC4CC4)CC3)ncc2Cl)nc2ccccc21 [Example A-59, 2-({1-[5-chloro-4-(1-methyl-1H-benzimidazol-2-yl)pyridin-2-yl]piperidin-4-yl}oxy)-N-cyclopropylacetamide]	96	0.012	0.003		
Cn1c(-c2cc(N3CCN(CCS(C)(=O)=O)CC3)ncc2Cl)nc2ccccc21 [Example A-61, 2-(5-chloro-2-{4-[2-(methylsulfonyl)ethyl]piperazin-1-yl}pyridin-4-yl)-1-methyl-1H-benzimidazole]		0.018		96	0.073
CC(=O)NCC1CCCN(c2cc(-c3nc4ccccc4n3C)c(Cl)cn2)C1 (stereo not drawn) [Example A-62, N-({1-[5-chloro-4-(1-methyl-1H-benzimidazol-2-yl)pyridin-2-yl]piperidin-3-yl}methyl)acetamide]	95	0.024	0.021		
Cn1c(-c2cc(N3CC[C@@H](O)[C@H](O)C3)ncc2Cl)nc2ccccc21 [Example A-63, (3R,4R)-1-[5-chloro-4-(1-methyl-1H-benzimidazol-2-yl)pyridin-2-yl]piperidine-3,4-diol]	95	0.025	0.018		
Cc1noc(C2CN(c3cc(-c4nc5ccccc5n4C)c(Cl)cn3)CCO2)n1 (stereo not drawn) [Example A-64, 2-{5-chloro-2-[2-(3-methyl-1,2,4-oxadiazol-5-yl)morpholin-4-yl]pyridin-4-yl}-1-methyl-1H-benzimidazole]	95	0.028	0.007		
Cn1c(-c2cc(N3CCC(CS(N)(=O)=O)CC3)ncc2Cl)nc2ccccc21 [Example A-65, 1-{1-[5-chloro-4-(1-methyl-1H-benzimidazol-2-yl)pyridin-2-yl]piperidin-4-yl}methanesulfonamide]	95	0.006	0.002		
Cn1c(-c2cc(N3CCC(S(N)(=O)=O)CC3)ncc2Cl)nc2ccccc21 [Example A-66, 1-[5-chloro-4-(1-methyl-1H-benzimidazol-2-yl)pyridin-2-yl]piperidine-4-sulfonamide]	94	0.014	0.005		
Cc1nnc2n1CCN(c1cc(-c3nc4ccccc4n3C)c(Cl)cn1)CC2 [Example A-67, 7-[5-chloro-4-(1-methyl-1H-benzimidazol-2-yl)pyridin-2-yl]-3-methyl-6,7,8,9-tetrahydro-5H-[1,2,4]triazolo[4,3-d][1,4]diazepine]	94	0.033	0.026		
Cn1c(-c2cc(N3CCc4nnc(C5CC5)n4CC3)ncc2Cl)nc2ccccc21 [Example A-68, 7-[5-chloro-4-(1-methyl-1H-benzimidazol-2-yl)pyridin-2-yl]-3-cyclopropyl-6,7,8,9-tetrahydro-5H-[1,2,4]triazolo[4,3-d][1,4]diazepine]	94	0.021	0.02		
Cn1c(-c2cc(N3CCC(O)(CO)CC3)ncc2Cl)nc2ccccc21 [Example A-69, 1-[5-chloro-4-(1-methyl-1H-benzimidazol-2-yl)pyridin-2-yl]-4-(hydroxymethyl)piperidin-4-ol]	94	0.027	0.01		
CCn1nnnc1C1CN(c2cc(-c3nc4ccccc4n3C)c(Cl)cn2)CCO1 (stereo not drawn) [Example A-71, 2-{5-chloro-2-[2-(1-ethyl-1H-tetrazol-5-yl)morpholin-4-yl]pyridin-4-yl}-1-methyl-1H-benzimidazole]	94	0.018	0.01		
CN(CCS(C)(=O)=O)c1cc(-c2nc3ccccc3n2C)c(Cl)cn1 [Example A-72, 5-chloro-N-methyl-4-(1-methyl-1H-benzimidazol-2-yl)-N-[2-(methylsulfonyl)ethyl]pyridin-2-amine]	94	0.025	0.012		
Cn1ccnc1C(O)C1CCN(c2cc(-c3nc4ccccc4n3C)c(Cl)cn2)CC1 (stereo not drawn) [Example A-73, {1-[5-chloro-4-(1-methyl-1H-benzimidazol-2-yl)pyridin-2-yl]piperidin-4-yl}(1-methyl-1H-imidazol-2-yl)methanol]	93	0.045	0.025		
Cn1c(-c2cc(N3CCC(C(=O)NCCO)CC3)ncc2Cl)nc2ccccc21 [Example A-74, 1-[5-chloro-4-(1-methyl-1H-benzimidazol-2-yl)pyridin-2-yl]-N-(2-hydroxyethyl)piperidine-4-carboxamide]	93	0.027	0.011		
Cn1c(-c2cc(N3CCC(C#N)CC3)ncc2Cl)nc2ccccc21 [Example A-75, 1-[5-chloro-4-(1-methyl-1H-benzimidazol-2-yl)pyridin-2-yl]piperidine-4-carbonitrile]	92	0.023	0.011		
Cn1c(-c2cc(N3CCOC(c4nc(C5CC5)no4)C3)ncc2Cl)nc2ccccc21 (stereo not drawn) [Example A-76, 2-{5-chloro-2-[2-(3-cyclopropyl-1,2,4-oxadiazol-5-yl)morpholin-4-yl]pyridin-4-yl}-1-methyl-1H-benzimidazole]	92	0.035	0.018		
CN1CC2(CCN(c3cc(-c4nc5ccccc5n4C)c(Cl)cn3)CC2)CC1=O [Example A-77, 8-[5-chloro-4-(1-methyl-1H-benzimidazol-2-yl)pyridin-2-yl]-2-methyl-2,8-diazaspiro[4.5]decan-3-one]	92	0.029	0.015		
